Reference: patent US11110105B2, “Compounds, composition and uses thereof for treating cancer” (INSTITUT GUSTAVE ROUSSY, priority 2017, dated 2021)
Entries after “also recorded” stand apart in the source; their conditions may differ. Read-outs that look alike come from different tables or passages of the source.

Tests used:
Water solubility = type: physicochemical
[1] = system: splicing of the Globin-SL8-intron gene product in B16F10 cells; experiment: qRT-PCR of unspliced/spliced globin-SL8-intron RNA, B16F10; type: cell-based, mouse; conditions: 15 μM isoginkgetin, 35 μM IP2 or 35 μM M2P2, 48 hours
Description: RNA was extracted and qRT-PCR was performed with primers amplifying the unspliced (intron) and the spliced (exon) globin-SL8-intron RNA. Data are given as mean ±SEM of the ratio of 2^−ΔΔCt intron and 2^−ΔΔCt exon of at least three independent experiments. […] Data are express as mean ±SEM of the percentage of viable cells compared to the control condition of at least three independent experiments. *P<0.05, **P<0.01, ***P<0.001 (unpaired student t test).
In addition, it has been shown that cancer cells can acquire deficiencies in the splicing machinery that benefit their growth, for example by preventing the expression of tumor suppressor genes.

[2] = system: H2-K^b molecules at the cell surface of MCA205 cells; experiment: Flow cytometry of H2-K^b expression, MCA205; type: cell-based, mouse
From the text: (§1) Flow cytometry analyses of H2-K^b expression on MCA205 and B16F10 cells treated with (A) isoginkgetin. Flow cytometry analyses of transiently expressed H2-K^b expression on A375, A549 and MRC5 cells treated with (B) isoginkgetin.

[3] = system: MCA205 globin-SL8-intron tumors; experiment: Tumor challenge, MCA205 globin-SL8-intron in immunodeficient Nu/Nu nude mice; type: in vivo, mouse; conditions: 18 mg/kg intraperitoneally
Description: (D) MCA205 globin-SL8-intron cells were inoculated subcutaneously on the […] mice flank. […] Tumor size was assessed every 3 to 4 days until day 27. Each line represents the tumor size in area (mm^2) of 6 mice in each group. Data are given as mean ±SEM. *p<0.05, **p<0.01 (ANOVA with Tukey's multiple comparison test comparing all groups). (E) MCA205 globin-SL8-intron cells were inoculated subcutaneously on the Nude nu/nu mice flank. […] Tumor size was assessed every 3 to 4 days until day 27. Each line represents the tumor size in area (mm^2) of 6 mice in each group. Data are given as mean ±SEM. (A) Experimental settings. Growth of (B) sarcoma MCA205 or (C) melanoma B16F10 cells that both stably express the globin-SL8-intron construct or (D) MCA205 Wild Type (WT) or (E) B16F10 WT cells that were subcutaneously inoculated on the flank of immunocompetent C57BL/6 mice injected intraperitoneally with 12 mg/kg or 18 mg/kg of isoginkgetin at days 5, 10 and 15 after inoculation. Tumor size was assessed every 3 to 4 days until reaching the established ethical endpoints. Each line represents the tumor size in area (mm^2) of 6 mice in each group. […] Area of the tumor is recorded every 3 to 4 days until day 27. […] Results are expressed as mean ±SEM. *[…] with Tukey's multiple comparison test comparing all groups).

[4] = system: H2-K^b molecules at the cell surface of B16F10 cells; experiment: Flow cytometry of H2-K^b expression, B16F10; type: cell-based, mouse
From the text: as §1

[5] = system: MCA205 globin-SL8-intron (MCA205 GI) tumors; experiment: Tumor challenge, MCA205 globin-SL8-intron in immunocompetent C57BL/6 mice; type: in vivo, mouse; conditions: for tumor growth: C57BL/6
Description: (A) Experimental settings. (B) MCA205 globin-SL8-intron cells were inoculated subcutaneously on the mice flank. Five days and fifteen days later, 6 mg/kg, 12 mg/kg or 18 mg/kg isoginkgetin was injected intraperitoneally. Tumor size was assessed every 3 to 4 days until day 27. Each line represents the tumor size in area (mm^2) of 6 mice in each group. Data are given as mean ±SEM. *p<0.05 (ANOVA with Tukey's multiple comparison test comparing all groups).
(A) Experimental settings. Growth of (B) sarcoma MCA205 or (C) melanoma B16F10 cells that both stably express the globin-SL8-intron construct or (D) MCA205 Wild Type (WT) or (E) B16F10 WT cells that were subcutaneously inoculated on the flank of immunocompetent C57BL/6 mice injected intraperitoneally with 12 mg/kg or 18 mg/kg of isoginkgetin at days 5, 10 and 15 after inoculation. Tumor size was assessed every 3 to 4 days until reaching the established ethical endpoints. Each line represents the tumor size in area (mm^2) of 6 mice in each group. Size in area (mm^2) of (F) MCA205 globin-SL8-intron, (G) B16F10 globin-SL8-intron, (H) MCA205 WT or (I) B16F10 WT tumors subcutaneously inoculated on the flank of immunodeficient Nu/Nu Nude mice injected intraperitoneally with 18 mg/kg of isoginkgetin at days 5, 10 and 15 after inoculation. Data are presented at the day before the endpoints are reached.
Data are given as mean ±SEM. *P<0.05, **P<0.01, ***P<0.001 (unpaired student t test). […] Tumor size was assessed every 3 to 4 days until reaching the established ethical endpoints. Each line represents the tumor size in area (mm^2) of at least 6 mice in each group. Data are given as mean ±SEM. *p<0.05, **p<0.01 (ANOVA with Tukey's multiple comparison test comparing all groups). […] A Log-rank (Mantel-Cox) test was performed.
C57B1/6J female mice are obtained from Harlan. NU/NU nude mouse mice are obtained from Charles River. At 7 weeks old, mice are injected subcutaneously on the right flank with 5×10^4 MCA205-Globin-SL8-intron cells or with 4×10^4 B16F10-Globin-SL8-intron cells along with matrigel (VWR). […] Fifteen days after challenge mouse are again treated intreaperitonealy with the same drug. Area of the tumor is recorded every 3 to 4 days until day 27. All animal experiments were carried out in compliance with French and European laws and regulations. Results are expressed as mean ±SEM. *p<0.05, **P<0.01, ***P<0.001 (ANOVA with Tukey's multiple comparison test comparing all groups).

[6] = 18 mg/kg intraperitoneally, days 5, 10 and 15
[7] = 18 mg/kg intraperitoneally, days 5 and 15

| SMILES | water solubility (Water solubility) | water solubility (Water solubility; listed as M2P2) | splicing of Globin-SL8-intron RNA (ratio unspliced/spliced, qRT-PCR) [1] | expression of the H2-K^b molecules at the cell surface [2] | tumor growth ([3]; days 5 and 15) | expression of the H2-K^b molecules at the cell surface [4] | survival (Kaplan Meier) ([5]; 18 mg/kg intraperitoneally) | tumor growth [5, 6] | tumor growth [5, 7] | tumor growth ([3]; days 5, 10 and 15) | reduction of tumor growth at day 27 after challenge ([5]; 6 mg/kg intraperitoneally, days 5 and 15) [%] | reduction of tumor size at day 27 after challenge ([5]; 12 mg/kg intraperitoneally, days 5, 10 and 15) | reduction of tumor size at day 27 after challenge [5, 6] | reduction of tumor growth at day 27 after challenge [5, 7] [%] | survivors 100 days after tumor inoculation ([5]; 18 mg/kg intraperitoneally, Kaplan Meier) |
| --- | --- | --- | --- | --- | --- | --- | --- | --- | --- | --- | --- | --- | --- | --- | --- |
| COc1ccc(-c2cc(=O)c3c(OC)cc(OP(=O)([O-])[O-])c(-c4cc(-c5cc(=O)c6c(OC)cc(OP(=O)([O-])[O-])cc6o5)ccc4OC)c3o2)cc1.[Na+].[Na+].[Na+].[Na+] [IM2P2] | able to be dissolved in water | considerably higher than that of the parent compound isoginkgetin | does not impact splicing; also recorded: no impact | is not affected | any of the compounds used have an effect on the tumor growth | is not affected | does not impact survival | no impact | did not demonstrate any tumor growth decrease |  |  |  |  |  |  |
| COc1ccc(-c2cc(=O)c3c(O)cc(O)c(-c4cc(-c5cc(=O)c6c(O)cc(O)cc6o5)ccc4OC)c3o2)cc1 [Isoginkgetin, isoginkgetin] | insoluble in water |  |  |  |  |  |  |  |  | No effect | 50 | over 50% | over 50% | 50 | around 30% |
